The record followed here is PubChem BioAssay AID328 (DTP/NCI, 2004).

The test deals with BDF1 mice, P388 leukemia ip, median survival T/C. The experiment in a line: NCI In Vivo Anticancer Drug Screen. Data for tumor model P388 Leukemia (intraperitoneal) in B6D2F1 (BDF1) mice. To be noted: endpoint: median survival time, higher = longer survival. Summed up:
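In tumour-bearing mice, survival after compound treatment is set against the vehicle group and given as a quotient.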

Where [1] appears, read: dose: 100.0 mg/kg/injection, schedule: Q01DX009 (ip), vehicle: saline with Tween-80.
[2] abbreviates: dose: 12.5 mg/kg/injection, schedule: Q01DX009 (ip), vehicle: saline with Tween-80.
The mark [3] stands for this setting: dose: 25.0 mg/kg/injection, schedule: Q01DX009 (ip), vehicle: saline with Tween-80.
[4] abbreviates: dose: 50.0 mg/kg/injection, schedule: Q01DX009 (ip), vehicle: saline with Tween-80.
Setting [5] is: dose: 100.0 mg/kg/injection, schedule: Q01DX009 (ip), vehicle: saline.
Setting [6] is: dose: 200.0 mg/kg/injection, schedule: Q01DX009 (ip), vehicle: saline.
Setting [7] is: dose: 100.0 mg/kg/injection, schedule: Q01DX001 (ip), vehicle: saline with Tween-80.
Where [8] appears, read: dose: 200.0 mg/kg/injection, schedule: Q01DX001 (ip), vehicle: saline with Tween-80.
[9] abbreviates: dose: 400.0 mg/kg/injection, schedule: Q01DX001 (ip), vehicle: saline with Tween-80.
Where [10] appears, read: dose: 100.0 mg/kg/injection, schedule: Q04DX003 (ip), vehicle: saline.
[11] abbreviates: dose: 200.0 mg/kg/injection, schedule: Q04DX003 (ip), vehicle: saline.

Several values for one entry are separate records, joined by “and”; a condition that tells them apart may be missing. Identical values can stand only once. Toxic doses and inconclusive results are not listed.

As to `CN1C=c2c3c(ccc2=C2C=CC4C=C5OCOC5=CC4=C21)OCO3` (centres undefined), the T/C by setting is: (dose: 5.0 mg/kg/injection, schedule: Q01DX010 (ip), vehicle: saline) 110 % of control; (dose: 6.25 mg/kg/injection, schedule: Q04DX003 (ip), vehicle: saline) 100 % of control; (dose: 10.0 mg/kg/injection, schedule: Q01DX010 (ip), vehicle: saline) 100 % of control; (dose: 12.5 mg/kg/injection, schedule: Q04DX003 (ip), vehicle: saline) 100 % of control; (dose: 20.0 mg/kg/injection, schedule: Q01DX010 (ip), vehicle: saline) 105 % of control; (dose: 25.0 mg/kg/injection, schedule: Q04DX003 (ip), vehicle: saline) 109 % of control.

As for `O=C1NC(=O)C(=Cc2cc3c(cc2Br)OCO3)C(=O)N1`, the T/C runs as follows: (dose: 75.0 mg/kg/injection, schedule: Q01DX009 (ip), vehicle: saline with Tween-80) 123 % of control; under setting [1], 124 % of control; (dose: 150.0 mg/kg/injection, schedule: Q01DX009 (ip), vehicle: saline with Tween-80) 120 % of control.

For `CCOC(=O)C1Cc2c([nH]c(=S)[nH]c2=O)OC1c1ccccc1` (centres undefined), the T/C under setting [2] is 100 % of control, the T/C under setting [3] is 90 % of control and the T/C under setting [4] was 104 % of control.

Take `N#Cc1c(N)sc2c1CCCC2`: the T/C was 109 % of control under setting [5]; 109 % of control under setting [6]; 104 % of control (dose: 400.0 mg/kg/injection, schedule: Q01DX009 (ip), vehicle: saline).

In the case of `O=S(=O)(Nc1ccc(NS(=O)(=O)c2ccccc2)c(S(=O)(=O)c2ccccc2)c1)c1ccccc1`, the T/C was 100 % of control under setting [7], 100 % of control under setting [8] and 100 % of control under setting [9].

For the compound `C[CH2][Pb]([CH2]C)([CH2]C)[O]C(=O)COC`, the T/C runs as follows: (dose: 0.78 mg/kg/injection, schedule: Q01DX009 (ip), vehicle: Klucel (hydroxypropylcellulose) (HPC)) 115 % of control; (dose: 1.56 mg/kg/injection, schedule: Q01DX009 (ip), vehicle: Klucel (hydroxypropylcellulose) (HPC)) 98 % of control; (dose: 3.13 mg/kg/injection, schedule: Q01DX009 (ip), vehicle: Klucel (hydroxypropylcellulose) (HPC)) 121 % of control.

For the compound `Cc1ccc(NCc2cccc3ccccc23)c(C)c1`, the T/C by setting is: under setting [10], 91 % of control; under setting [11], 100 % of control; (dose: 400.0 mg/kg/injection, schedule: Q04DX003 (ip), vehicle: saline) 95 % of control.

Turning to `Cc1cc(C)cc(NCCC#N)c1`, the T/C (dose: 100.0 mg/kg/injection, schedule: Q01DX009 (ip), vehicle: other) was 115 % of control; the T/C (dose: 200.0 mg/kg/injection, schedule: Q01DX009 (ip), vehicle: other) is 115 % of control; the T/C (dose: 400.0 mg/kg/injection, schedule: Q01DX009 (ip), vehicle: other) was 105 % of control.

As to `CCN(CC)CCOC(=O)c1ccc(NC(=O)Nc2ccc(C(=O)OCCN(CC)CC)cc2)cc1`, the T/C under setting [1] was 119 % of control.

Regarding `COc1cccc(/C=N\O)c1`, the T/C is, setting by setting: (dose: 100.0 mg/kg/injection, schedule: Q04DX003 (ip), vehicle: saline with Tween-80) 104 % of control; (dose: 200.0 mg/kg/injection, schedule: Q04DX003 (ip), vehicle: saline with Tween-80) 100 % of control; (dose: 400.0 mg/kg/injection, schedule: Q04DX003 (ip), vehicle: saline with Tween-80) 104 % of control.

For `CCOC(=O)C(=O)NNc1cccc(Cl)n1`, the T/C by setting is: under setting [7], 94 % of control; under setting [8], 86 % of control; under setting [9], 112 % of control.

In the case of `C=C(C)C12CC(C)C34OC5(CCCCCCCC(C)C6C(C)C(OC(=O)c7ccccc7)C(O)(C(O)C7(COC(=O)CCCCCCCCCCCCCCC)OC7C3C1O5)C64)O2` (centres undefined), the T/C (dose: 0.6 micrograms/kg/injection, schedule: Q01DX009 (ip), vehicle: saline + alcohol) was 104 % of control; the T/C (dose: 1.3 micrograms/kg/injection, schedule: Q01DX009 (ip), vehicle: saline + alcohol) was 112 % of control; the T/C (dose: 1.5 micrograms/kg/injection, schedule: Q01DX009 (ip), vehicle: saline + alcohol) was 103 % of control; the T/C (dose: 2.5 micrograms/kg/injection, schedule: Q01DX009 (ip), vehicle: saline + alcohol) is 109 % of control; the T/C (dose: 3.1 micrograms/kg/injection, schedule: Q01DX009 (ip), vehicle: saline + alcohol) is 106 % of control; the T/C (dose: 5.0 micrograms/kg/injection, schedule: Q01DX009 (ip), vehicle: saline + alcohol) was 112 % of control. The T/C is 96 % of control (dose: 10.0 micrograms/kg/injection, schedule: Q01DX009 (ip), vehicle: saline + alcohol); 154 % of control (dose: 12.5 micrograms/kg/injection, schedule: Q01DX009 (ip), vehicle: saline + alcohol); 116 % of control (dose: 20.0 micrograms/kg/injection, schedule: Q01DX009 (ip), vehicle: saline + alcohol); 168 % of control (dose: 25.0 micrograms/kg/injection, schedule: Q01DX009 (ip), vehicle: saline + alcohol); 183 % of control (dose: 50.0 micrograms/kg/injection, schedule: Q01DX009 (ip), vehicle: saline + alcohol); 116 % of control (dose: 80.0 micrograms/kg/injection, schedule: Q01DX009 (ip), vehicle: saline + alcohol).

For `CC(=O)Oc1cc2c(cc1OC(C)=O)C(Br)CCCC2=O` (centres undefined), the T/C was 95 % of control (dose: 75.0 mg/kg/injection, schedule: Q04DX003 (ip), vehicle: other); 95 % of control (dose: 150.0 mg/kg/injection, schedule: Q04DX003 (ip), vehicle: other); 109 % of control (dose: 300.0 mg/kg/injection, schedule: Q04DX003 (ip), vehicle: other).

Take `CC(=O)NC(=O)NC(C)=O`: the T/C runs as follows: (dose: 100.0 mg/kg/injection, schedule: Q01DX001 (ip), vehicle: saline) 91 % of control; (dose: 200.0 mg/kg/injection, schedule: Q01DX001 (ip), vehicle: saline) 91 % of control; (dose: 400.0 mg/kg/injection, schedule: Q01DX001 (ip), vehicle: saline) 91 % of control.

Consider `CC(C)C(C)/C=C\C(C)C1CCC2C3=CCC4CC(O)CCC4(C)C3CCC21C` (centres undefined), for which the T/C is 100 % of control (dose: 6.25 mg/kg/injection, schedule: Q01DX009 (ip), vehicle: saline with Tween-80); 101 % of control under setting [2]; 94 % of control under setting [3].

`OC(CC1CCCCN1)c1ccccc1` (centres undefined): the T/C reads like this: under setting [2], 99 % of control; under setting [3], 99 % of control; under setting [4], 94 % of control and 110 % of control.

For `Nc1ccccc1-c1ccc([N+](=O)[O-])cc1`, the T/C under setting [7] is 95 % of control, the T/C under setting [8] is 100 % of control and the T/C under setting [9] was 91 % of control.

With `CC1(C)c2c3ccccc3cc3cccc(c23)[S+]1c1ccccc1` (centres undefined), the T/C (dose: 10.0 mg/kg/injection, schedule: Q01DX009 (ip), vehicle: saline with Tween-80) is 120 % of control.

With `Nc1ccc(/C=C2\C=Cc3ccccc32)cc1`, the T/C was 100 % of control (dose: 17.75 mg/kg/injection, schedule: Q04DX003 (ip), vehicle: saline sonified); 90 % of control (dose: 18.75 mg/kg/injection, schedule: Q01DX009 (ip), vehicle: saline with Tween-80); 100 % of control (dose: 37.5 mg/kg/injection, schedule: Q01DX009 (ip), vehicle: saline with Tween-80); 100 % of control (dose: 37.5 mg/kg/injection, schedule: Q04DX003 (ip), vehicle: saline sonified); 95 % of control (dose: 75.0 mg/kg/injection, schedule: Q04DX003 (ip), vehicle: saline sonified).

For the compound `CN(C)c1ccc(/C=C2\SC(=S)N(Cc3ccco3)C2=O)cc1`, the T/C was 92 % of control under setting [4]; 91 % of control under setting [1]; 88 % of control (dose: 200.0 mg/kg/injection, schedule: Q01DX009 (ip), vehicle: saline with Tween-80).

Take `CC(=O)C[n+]1ccccc1C(c1ccccc1)c1ccccc1`: the T/C runs as follows: (dose: 12.5 mg/kg/injection, schedule: Q01DX005 (ip), vehicle: saline) 101 % of control; (dose: 25.0 mg/kg/injection, schedule: Q01DX005 (ip), vehicle: saline) 92 % of control; (dose: 50.0 mg/kg/injection, schedule: Q01DX005 (ip), vehicle: saline) 101 % of control.

Take `NN1CCCC1`: the T/C runs as follows: (dose: 25.0 mg/kg/injection, schedule: Q01DX009 (ip), vehicle: saline) 100 % of control; (dose: 50.0 mg/kg/injection, schedule: Q01DX009 (ip), vehicle: saline) 100 % of control; under setting [5], 86 % of control and 90 % of control and 100 % of control; under setting [10], 104 % of control; under setting [6], 100 % of control; under setting [11], 113 % of control.
